Laboratory results taken from paper PMC11022681 (Journal of the American Chemical Society, 2023).

Test: Kinetic inertness: transmetalation with excess Zn2+
Assay type: physicochemical
Settings: 25 equivalents of Zn2+, 37 °C, pH 6.0 MES buffer

## Mn-PyC3A
  pseudo-first-order rate constant of transmetalation: 5.5 ± 0.4 ×10^−4 s^−1
